Values joined by “and” are separate entries in the source; they are usually repeats but may differ in a detail not shown here. Equal entries are not always repeated.
System: 227483-062-R1-J1-PDC complex spheroids with HUVEC/MSC, viability
Assay: Anticancer human tumor 227483-062-R1-J1-PDC patient-derived pancreatic carcinoma cell line growth inhibition [CLK]
Settings: for viability, T/C: stronger effect = lower value
Method in brief: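 Patient-derived tumor cells grown as complex spheroids with HUVEC endothelial cells and mesenchymal stem cells, treated with drug combinations. Concentrations descend in half-log steps from near clinical Cmax, or from 10 microM if Cmax unknown.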
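Further: spheroids exposed to compounds for seven days before readout.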
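Wherever viability, T/C is given: percent of DMSO vehicle control luminescence as 100% viability.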

## CC(Nc1ccc2c(c1)OCCn1cc(N3C(=O)OCC3C(F)F)nc1-2)C(N)=O (centres undefined) + CNC(=O)c1ccc(Nc2nc(OC3CCCC3)c3c(-c4ccc5nc(C)oc5c4)c[nH]c3n2)c(OC)c1
Curve of first compound, second compound 0.0316 µM
  IC50: > 10 µM
Curve of first compound, second compound 0.1 µM
  IC50: > 10 µM
Curve of first compound, second compound 0.316 µM
  IC50: > 10 µM
Curve of first compound, second compound 1 µM
  IC50: 0.0733 µM
Curve of first compound, second compound 3.16 µM
  IC50: < 0.0316 µM
Curve of first compound, second compound 10 µM
  IC50: < 0.0316 µM
Second compound 0.0316 µM, first compound 0.0316 µM
  viability, T/C: 105%
Second compound 0.0316 µM, first compound 0.1 µM
  viability, T/C: 82.3%
Second compound 0.0316 µM, first compound 0.316 µM
  viability, T/C: 83.9%
Second compound 0.0316 µM, first compound 1 µM
  viability, T/C: 85.5%
Second compound 0.0316 µM, first compound 3.16 µM
  viability, T/C: 65.4%
Second compound 0.0316 µM, first compound 10 µM
  viability, T/C: 67.3%
Second compound 0.1 µM, first compound 0.0316 µM
  viability, T/C: 88%
Second compound 0.1 µM, first compound 0.1 µM
  viability, T/C: 78.4%
Second compound 0.1 µM, first compound 0.316 µM
  viability, T/C: 66.1%
Second compound 0.1 µM, first compound 1 µM
  viability, T/C: 70.3%
Second compound 0.1 µM, first compound 3.16 µM
  viability, T/C: 55.7%
Second compound 0.1 µM, first compound 10 µM
  viability, T/C: 58.2%
Second compound 0.316 µM, first compound 0.0316 µM
  viability, T/C: 92.5%
Second compound 0.316 µM, first compound 0.1 µM
  viability, T/C: 64.3%
Second compound 0.316 µM, first compound 0.316 µM
  viability, T/C: 65.5%
Second compound 0.316 µM, first compound 1 µM
  viability, T/C: 52.4%
Second compound 0.316 µM, first compound 3.16 µM
  viability, T/C: 56.9%
Second compound 0.316 µM, first compound 10 µM
  viability, T/C: 49.7%
Second compound 1 µM, first compound 0.0316 µM
  viability, T/C: 60.6%
Second compound 1 µM, first compound 0.1 µM
  viability, T/C: 45.1%
Second compound 1 µM, first compound 0.316 µM
  viability, T/C: 46.9%
Second compound 1 µM, first compound 1 µM
  viability, T/C: 47.7%
Second compound 1 µM, first compound 3.16 µM
  viability, T/C: 39.7%
Second compound 1 µM, first compound 10 µM
  viability, T/C: 41.9%
Second compound 3.16 µM, first compound 0.0316 µM
  viability, T/C: 45%
Second compound 3.16 µM, first compound 0.1 µM
  viability, T/C: 49.8%
Second compound 3.16 µM, first compound 0.316 µM
  viability, T/C: 32%
Second compound 3.16 µM, first compound 1 µM
  viability, T/C: 33.4%
Second compound 3.16 µM, first compound 3.16 µM
  viability, T/C: 35.4%
Second compound 3.16 µM, first compound 10 µM
  viability, T/C: 25.9%
Second compound 10 µM, first compound 0.0316 µM
  viability, T/C: 38.6%
Second compound 10 µM, first compound 0.1 µM
  viability, T/C: 46.2%
Second compound 10 µM, first compound 0.316 µM
  viability, T/C: 37.7%
Second compound 10 µM, first compound 1 µM
  viability, T/C: 27.8%
Second compound 10 µM, first compound 3.16 µM
  viability, T/C: 32.9%
Second compound 10 µM, first compound 10 µM
  viability, T/C: 24.9%

## COC1C=CCC(C)C(C)S(=O)(=O)NC(=O)c2ccc3c(c2)N(CC2CCC21)CC1(CCCc2cc(Cl)ccc21)CO3 (centres undefined)
Compound 0.0316 µM
  viability, T/C: 93.6% and 86.3%
Compound 0.1 µM
  viability, T/C: 93.9% and 81.1%
Compound 0.316 µM
  viability, T/C: 95.4% and 95.6%
Compound 1 µM
  viability, T/C: 106% and 91.1%
Compound 3.16 µM
  viability, T/C: 97.3% and 83.1%
Compound 10 µM
  viability, T/C: 25.9% and 22.8%
Curve of compound
  IC50: 6.77 µM and 5.96 µM

— PubChem BioAssay AID2060623 (Molecular Pharmacology Branch, DTP, NCI, 2025)
